{"source": "patent US20030229044A1", "about": "“Use of statins and other immunomodulatory agents in the treatment of autoimmune disease” (priority 2002, published 2003)", "key": {"[1]": {"tested_on": "PLP p139-151-induced EAE in SJL/J mice", "assay": "PLP p139-151-induced chronic relapsing EAE in SJL/J mice", "assay_type": "in vivo, mouse", "source_text": "(§1) Animals. Female SJL/J, B10.PL and C57BL/6 mice (8 to 12-week-old) were purchased from the Jackson Laboratory (Bar Harbor, Me.). MBP Ac 1-11 transgenic (tg) TCR mice were backcrossed with B10.PL mice to obtain susceptibility to EAE. All animal protocols were approved by the Division of comparative Medicine at Stanford and in accordance with the National Institutes of Health guidelines.\n(§2) Peptides. Peptides were synthesized on a peptide synthesizer (model 9050; MilliGen, Burlington, Mass.) by standard 9-fluorenylmethoxycarbonyl chemistry. Peptides were purified by HPLC. Structures were confirmed by amino acid analysis and mass spectroscopy.\n(§3) EAE Induction. Relapsing remitting EAE was induced in SJL/J mice with 100 μg of PLP139-151 peptide, chronic progressive EAE was induced either in C57BL/6 or MBP Ac1-11 TCR Tg mice with 100 μg of MOG35-55 peptide or 100 μg of MBP Ac1-11 peptide, respectively. All peptides were dissolved in PBS at a concentration of 2 mg/ml and emulsified with an equal volume of CFA, which consists of incomplete Freund's adjuvant supplemented with 4 mg/ml heat-killed mycobacterium tuberculosis H37Ra (Difco Laboratories, Detroit, Mich.). […] Mice were clinically scored as follows: 0, no paralysis; 1, tail weakness or paralysis; 2, hindlimb weakness or paralysis; 3, hindlimb paralysis and forelimb weakness; 4, hindlimb and forelimb paralysis; and 5, moribund or death. […]"}, "[2]": {"tested_on": "MHC II expression (CIITA p IV gene)", "conditions": "through the effect on the CIITA p IV gene; cited from earlier work"}, "[3]": {"tested_on": "lymph node cells and spleen cells from EAE donors", "assay": "Cytokine profile determination by ELISA", "assay_type": "cell-based, mouse", "description": "Cytokine Profile Determination. Lymph node cells and spleen cells from EAE donors were stimulated in vitro (2.5×10^6 cells/ml) in 24-well plates with or without the encephalogenic peptide or with […] as positive control. Cell culture supernatants were collected at different time points for measurements of cytokine levels: 48 hours for IL-2, 72 hours for IFN-γ and TNF α, and 120 hours for IL-4 and IL-10. Cytokine levels were determined using specific ELISA kits for the corresponding cytokines according to the manufacturers protocols (PharMingen, San Diego, Calif., USA)."}, "[4]": {"tested_on": "MBP Ac1-11-induced EAE in MBP Ac1-11 TCR Tg mice", "assay": "MBP Ac1-11-induced acute EAE in MBP Ac1-11 Tg mice", "assay_type": "in vivo, mouse", "source_text": "as §1, §2\nEAE Induction. […] All peptides were dissolved in PBS at a concentration of 2 mg/ml and emulsified with an equal volume of CFA, which consists of incomplete Freund's adjuvant supplemented with 4 mg/ml heat-killed mycobacterium tuberculosis H37Ra (Difco Laboratories, Detroit, Mich.). Mice were injected subcutaneously with 0.1 ml of the peptide emulsion. […] Mice were clinically scored as follows: 0, no paralysis; 1, tail weakness or paralysis; 2, hindlimb weakness or paralysis; 3, hindlimb paralysis and forelimb weakness; 4, hindlimb and forelimb paralysis; and 5, moribund or death. […]"}, "[5]": {"tested_on": "MOG p35-55-induced EAE in C57BL/6 mice", "assay": "MOG p35-55-induced chronic EAE in C57BL/6 mice", "assay_type": "in vivo, mouse", "source_text": "as §1, §2, §3"}, "STAT6": {"tested_on": "STAT6", "assay": "Western blot for STAT6 phosphorylation in draining lymph node cells", "assay_type": "in vivo, mouse", "conditions": "lymph nodes of SJL/J mice, 1 mg/kg and 10 mg/kg, 10 days after EAE induction; PBS: none detectable", "protocol": "All procedures were handled on ice. As a positive control, lymph node cells from naive mice were isolated and cultured for one hour with mouse recombinant IL-4 (10 ng/ml) or INF-γ (100 units/ml), for STAT6 and STAT4 expression respectively. Protein concentrations were determined by BCA protein assay (Pierce). Lysate was added to 3×SDS loading buffer (Cell Signaling Technology) with 40 mM DTT. Products were separated by electrophoresis on a 4-15% SDS-PAGE gradient gel (BioRad). Pre-stained markers (Invitrogen) were used to determine MW. Gels were blotted to PVDF membranes at 100 V in 25 mM Tris, 192 mM glycine and 20% (v/v) methanol, then blocked 1 hr at RT with Tris-buffered saline (TBS) containing 0.1% Tween-20 and 5% nonfat dry milk. After washing in TBS and 0.1% Tween 20, membranes were hybridized overnight at 4° C. with anti-phospho-STAT6 Antibody or anti-phospho-STAT4 antibody (Zymed, South San Francisco, Calif.) diluted 1:1000 in TBS, 0.1% Tween 20 and 5% BSA, the membranes were then processed by ECL Plus prebetween protocol (Amersham Life Sciences) for visualization of the bands by chemiluminescence. […]"}, "[6]": {"tested_on": "PLP p139-151-stimulated spleen and lymph node cells", "assay": "Ag specific ex-vivo T cell proliferation assay", "assay_type": "cell-based, mouse", "source_text": "Ag specific ex-vivo T cell proliferation assay."}, "microglia and astrocytes": {"tested_on": "microglia and astrocytes", "conditions": "cited from earlier work"}, "NOD mice": {"tested_on": "NOD mice", "conditions": "as proteins, under tolerizing conditions; cited from earlier work"}, "EAE in Lewis rats": {"tested_on": "EAE in Lewis rats", "assay": "MBPp85-99-induced EAE in Lewis rats, ordered peptides", "assay_type": "in vivo, rat", "conditions": "single intraperitoneal dose of 0.5 mg peptide on day of mean disease onset", "description": "FIG. 8 is a graph depicting the prevention of EAE in rats treated with ordered peptides. […] Animals were injected with an emulsion of 0.1 mg of MBPp85-99 in complete Freund's adjuvant for EAE induction. Ten days later, when the clinical manifestations of disease became apparent, a single intra peritoneal dose of peptide {SEQ ID NO:4} […] (squares), {SEQ ID NO:5} […] (triangles), or PBS (circles) was administered. Results are expressed as mean disease score of groups of six animals.\nAnimals. Female Lewis rats (6-8 weeks old), were purchased from Harlan Sprague Dawley (Indianapolis, Ind.)\nPeptides. For immunization and disease reversal, peptides were synthesized on a peptide synthesizer (model 9050: MilliGen, Burlington, Mass.) by standard 9-fuorenylmethoxycarbonyl chemistry. Peptides were purified by HPLC. Structure was confirmed by amino acid analysis and mass spectroscopy. Peptides used for the experiments were: {SEQ ID NO:11} […] (MBPp85 99), {SEQ ID NO:4} […], {SEQ ID NO:5} […].\nEAE induction. […] Rats were injected subcutaneously with 0.1 mi of the peptide emulsion.\nEAE treatment. Rats previously immunized with MBPp85-99 for EAE induction were scored from day eight after peptide injection. On the day of mean disease onset, animals were injected intraperitoneally with a solution of 0.5 mg of peptide in PBS (one dose of 0.25 ml)."}, "[7]": {"conditions": "ELISA, SJL/J mice, 1 and 10 mg/kg"}}, "note": "Entries after “also recorded” stand apart in the source; their conditions may differ.", "data": [{"compound": "CC(C)c1c(C(=O)Nc2ccccc2)c(-c2ccccc2)c(-c2ccc(F)cc2)n1CC[C@@H](O)C[C@@H](O)CC(=O)O", "note": "[atorvastatin]", "values": [{"measurement": "relapsing EAE (mean EAE score)", "setting": "[1]; treatment at onset", "value": "effective in prevention of relapsing EAE"}, {"measurement": "ongoing relapsing EAE (mean EAE score)", "setting": "[1]; treatment begun after recovery from acute EAE", "value": "reversal of ongoing relapsing EAE"}, {"measurement": "expression of MHC II", "setting": "[2]", "value": "could inhibit the expression of MHC II"}, {"measurement": "secretion of IL-10", "setting": "[3]; ELISA, SJL/J mice", "value": "observed at the higher treatment dose"}, {"measurement": "IL-4 production", "setting": "[3]; [7]", "value": "induced at both treatment doses"}, {"measurement": "Production of IL-2", "setting": "[3]; [7]", "value": "reduced, although to a much greater extent in mice treated with 10 mg/kg"}, {"measurement": "secretion of IFN-γ", "setting": "[3]; ELISA, SJL/J mice, both treatment doses", "value": "dramatic reduction"}, {"measurement": "Th2 bias (proliferation and cytokines)", "setting": "[3]; repeated in C57BL/6 and MBP Ac1-11-specific transgenic mice", "value": "promoted an almost identical Th2 bias"}, {"measurement": "acute EAE progression", "setting": "[4]", "value": "successfully prevented acute EAE progression"}, {"measurement": "EAE (mean EAE score)", "setting": "[5]; daily oral 1 mg/kg or 10 mg/kg starting at the time of EAE onset, C57Bl/6 female mice", "value": "suppressed EAE induction"}, {"measurement": "EAE (mean EAE score)", "setting": "[5]; treatment after onset, C57Bl/6 mice", "value": "ameliorated EAE"}, {"measurement": "phosphorylated STAT6", "setting": "STAT6", "value": "phosphorylated STAT6 is seen"}, {"measurement": "PLP p139-151-specific proliferative responses", "setting": "[6]; 3H-thymidine incorporation, SJL/J mice treated with 1 or 10 mg/kg", "value": "suppressed in a dose-related fashion"}, {"measurement": "cell death", "setting": "[6]; in vitro cultures of cells from treated mice", "value": "not observed increased cell death"}]}, {"compound": "CC[C@H](C)C(=O)O[C@H]1C[C@@H](C)C=C2C=C[C@H](C)[C@H](CC[C@@H]3C[C@@H](O)CC(=O)O3)[C@H]21", "note": "[lovastatin]", "values": [{"measurement": "production of iNOS and proinflammatory cytokines", "setting": "microglia and astrocytes", "value": "inhibited production of nitric oxide synthase (iNOS) and proinflammatory cytokines (TNFα, IL-1β and IL-6)"}]}, {"compound": "insulin", "values": [{"measurement": "diabetes in NOD mice", "setting": "NOD mice", "value": "prevents disease"}]}, {"compound": "EYYKEYYKEYYK [ordered peptide with repeated motif EYYK]", "values": [{"measurement": "EAE in Lewis rats (mean disease score)", "setting": "EAE in Lewis rats", "value": "effective in preventing and treating experimental autoimmune encephalomyelitis; also recorded: effectively prevent and treat EAE in Lewis rats; also recorded: prevents the development of EAE"}]}]}
